Results on 13 compounds are retold here after patent US8765767B2, “Positive allosteric modulators of mGluR2” (Bristol-Myers Squibb Company, priority 2012, dated 2014).

The target in the assay is T1, human mGluR2 (Homo sapiens, UniProt Q14416).
T1 construct: expressed in transfected cells; host or cells: HEK293 clonal line
T1 sequence (Q14416 19-872): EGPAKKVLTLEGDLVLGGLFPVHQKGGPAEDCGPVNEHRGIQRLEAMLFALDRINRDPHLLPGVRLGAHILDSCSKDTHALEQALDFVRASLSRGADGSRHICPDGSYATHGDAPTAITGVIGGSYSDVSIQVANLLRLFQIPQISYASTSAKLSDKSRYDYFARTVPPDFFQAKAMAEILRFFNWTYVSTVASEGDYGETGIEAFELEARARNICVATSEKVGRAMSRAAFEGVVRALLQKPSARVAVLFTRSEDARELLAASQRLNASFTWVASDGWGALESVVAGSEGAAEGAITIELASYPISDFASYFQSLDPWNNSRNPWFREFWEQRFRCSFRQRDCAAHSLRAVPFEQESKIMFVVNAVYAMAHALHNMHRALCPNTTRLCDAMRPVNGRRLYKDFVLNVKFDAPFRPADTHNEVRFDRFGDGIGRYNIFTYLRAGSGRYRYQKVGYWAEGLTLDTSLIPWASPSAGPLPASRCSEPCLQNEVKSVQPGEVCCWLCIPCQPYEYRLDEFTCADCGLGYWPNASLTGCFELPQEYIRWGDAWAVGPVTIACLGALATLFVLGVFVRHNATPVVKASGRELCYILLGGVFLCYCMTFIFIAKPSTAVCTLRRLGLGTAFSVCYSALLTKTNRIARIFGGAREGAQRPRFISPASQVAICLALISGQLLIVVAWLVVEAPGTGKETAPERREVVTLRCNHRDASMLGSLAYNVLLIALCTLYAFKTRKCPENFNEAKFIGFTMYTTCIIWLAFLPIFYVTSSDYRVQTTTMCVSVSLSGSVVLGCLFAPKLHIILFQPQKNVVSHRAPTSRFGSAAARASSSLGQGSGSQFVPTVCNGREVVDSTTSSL
Nature of the assay: mGluR2 cAMP assay (HTRF) in HEK293 cells clonally expressing human mGluR2. The following applies: HEK293 cells expressing human mGluR2, 1 μM forskolin, 1 μM LY-341495, 30 min. It is filed as cell-based. Here is the method:
• Cell Culture. Clonally expressed human mGluR2 in HEK293 background was glutamate starved overnight in media without glutamine (GIBCO MEM 12360), containing 10% FBS, 1% penicillin streptomycin. • cAMP Measurement. On the day of the assay, media was removed, cells washed with PBS, cells harvested and pelleted by centrifugation. Cell pellets were resuspended in stimulation buffer without forskolin and counted. A solution of 1.25×10^6 cells/mL was prepared and dispensed to plates using a Combi liquid handler (Thermo). A standard curve was created using a top concentration of cAMP of 1 μM in the stimulation buffer, 1:3 dilutions over 14 points in the absence of cells. Plates were read by time-resolved fluorescence at […] and a ratio was calculated via in house software, (665 nM/618 nM)*10^4. In house software converted the fluorescence value ratios to units of cAMP concentration, which is then used to calculate % inhibition for each test compound. • MGluR2 cAMP Assay Materials and Methods. Compounds were added to white, standard volume 384 non-binding surface plates (Corning 3574). Cells were resuspended in stimulation buffer consisting of Hanks Balanced Salt Solution (14175-095) pH 7.0, 20 mM HEPES, 2.0 mM CaCl2, 5.0 mM MgCl2, and 1 mM IBMX (Sigma 15879), 1 μM forskolin, and 1 μM LY-341495 for 30 min. Buffer without forskolin was used as a negative control. Solutions of D2 and cryptate detection reagents from the CISBIO dynamic cAMP kit (62AM4PEJ) were diluted 1:40 in lysis buffer. Lysis buffer consisted of 50 mM Phosphate Buffer pH 7.0, 800 mM Potassium Fluoride, 0.2% BSA, and 1.0% Triton. Assay reaction was terminated by addition of detection reagents in lysis buffer. One hour later, plates were read on a PE Viewlux. Data was extracted, and concentration response curves generated by fitting the data to a standard 4 parameter logistic equation from which EC50 values were determined.
Broadly, the EC50 is the midpoint of the concentration-response curve. High values mean lower potency in that assay, low ones higher potency in that assay. The compound `Fc1ccc(F)c([C@H]2C[C@@H]2CNc2ccn3c(CC4CC4)nnc3c2Cl)c1` [Example 43, 8-Chloro-3-(cyclopropylmethyl)-N-(((1S,2S)-2-(2,5-difluorophenyl)cyclopropyl)methyl)-[1,2,4]triazolo[4,3-a]pyridin-7-amine] came in with a 50% effective concentration (EC50) of 2 nM.

With `Clc1c(NC[C@H]2CCC[C@@H]2c2ccccc2)ccn2c(CC3CC3)nnc12` (single isomer, unassigned) [Example 45], the EC50 is 12 nM. Compound `Clc1c(NC[C@@H]2CCC[C@H]2c2ccccc2)ccn2c(CC3CC3)nnc12` (racemic) [Example 3, (+/−)Trans-8-chloro-3-(cyclopropylmethyl)-N-((2-phenylcyclopentyl)methyl)-[1,2,4]triazolo[4,3-a]pyridin-7-amine] gave an EC50 of 5 nM. For `N#Cc1c(NCC2CC2c2ccc(F)cc2)ccn2c(CC(F)(F)F)cnc12` (stereo not shown) [Example 30, 7-(((2-(4-Fluorophenyl)cyclopropyl)methyl)amino)-3-(2,2,2-trifluoroethyl)imidazo[1,2-a]pyridine-8-carbonitrile] the value was 108 nM.

As to `Fc1ccc([C@H]2C[C@@H]2CNc2ccn3c(CC(F)(F)F)cnc3c2C(F)(F)F)cc1` (stereo in doubt) [Example 31, N-(((1S,2S)-2-(4-Fluorophenyl)cyclopropyl)methyl)-3-(2,2,2-trifluoroethyl)-8-(trifluoromethyl)imidazo[1,2-a]pyridin-7-amine], the response was half-maximal at 24 nM (EC50).

In turn, `COc1ccccc1C1CC1CNc1ccn2c(CC(F)(F)F)cnc2c1C#N` (stereo not shown) [Example 29, 7-(((2-(2-Methoxyphenyl)cyclopropyl)methyl)amino)-3-(2,2,2-trifluoroethyl)imidazo[1,2-a]pyridine-8-carbonitrile] displayed a concentration giving a half-maximal response (EC50) of 81 nM.

`Fc1ccc([C@H]2C[C@@H]2CNc2ccn3c(CC4CC4)nnc3c2C(F)(F)F)cc1` [Example 20, 3-(Cyclopropylmethyl)-N-(((1S,2S)-2-(4-fluorophenyl)cyclopropyl)methyl)-8-(trifluoromethyl)-[1,2,4]triazolo[4,3-a]pyridin-7-amine] returned an EC50 of 2 nM. `Fc1ccc(F)c([C@@H]2C[C@H]2CNc2ccn3c(CC4CC4)nnc3c2Cl)c1` [Example 44, 8-Chloro-3-(cyclopropylmethyl)-N-(((1R,2R)-2-(2,5-difluorophenyl)cyclopropyl)methyl)-[1,2,4]triazolo[4,3-a]pyridin-7-amine] came in with a concentration giving a half-maximal response (EC50) of 2 nM. In other words, the single-digit nanomolar range. Turning to `COc1cccc(F)c1[C@@H]1C[C@H]1CNc1ccn2c(CC3CC3)nnc2c1Cl` [Example 34, 8-Chloro-3-(cyclopropylmethyl)-N-(((1R,2R)-2-(2-fluoro-6-methoxyphenyl)cyclopropyl)methyl)-[1,2,4]triazolo[4,3-a]pyridin-7-amine], the EC50 was determined as 1 nM.

As for `CC(Nc1ccn2c(CC3CC3)nnc2c1Cl)[C@@H]1C[C@H]1c1ccc(F)cc1` (stereo partly drawn) [Example 14, 8-Chloro-3-(cyclopropylmethyl)-N-(1-((1R,2R)-2-(4-fluorophenyl)cyclopropyl)ethyl)-[1,2,4]triazolo[4,3-a]pyridin-7-amine], the response was half-maximal at 55 nM (EC50).

For the compound `CN(C[C@@H]1C[C@H]1c1ccc(F)cc1)c1ccn2c(CC3CC3)nnc2c1C(F)(F)F` [Example 40, 3-(Cyclopropylmethyl)-N-(((1R,2R)-2-(4-fluorophenyl)cyclopropyl)methyl)-N-methyl-8-(trifluoromethyl)-[1,2,4]triazolo[4,3-a]pyridin-7-amine], the EC50 was 7 nM. This EC50 lies about 7.9-fold lower than the previous one.

As to `CN(C[C@H]1C[C@@H]1c1ccc(F)cc1)c1ccn2c(CC3CC3)nnc2c1C(F)(F)F` [Example 39, 3-(Cyclopropylmethyl)-N-(((1S,2S)-2-(4-fluorophenyl)cyclopropyl)methyl)-N-methyl-8-(trifluoromethyl)-[1,2,4]triazolo[4,3-a]pyridin-7-amine], the EC50 amounted to 1 nM. For `COc1cccc(F)c1[C@H]1C[C@@H]1CNc1ccn2c(CC3CC3)nnc2c1Cl` [Example 33, 8-Chloro-3-(cyclopropylmethyl)-N-(((1S,2S)-2-(2-fluoro-6-methoxyphenyl)cyclopropyl)methyl)-[1,2,4]triazolo[4,3-a]pyridin-7-amine] the value was 1 nM.
